A word on the MIC: it is the smallest concentration in the dilution series that meets the test's criterion for growth inhibition.

SMILES strings stand for the structures. In brackets after ≈: the same amount, converted by molar mass.

Series [1] concerns Bacillus cereus (B. cereus) CVCC 4101. Type of series: cell-based. To be noted: NB medium, 37 °C, 18 h, three independent measurements. The protocol: (§1) MIC was determined using the broth microdilution method with minor modification. In brief, bacteria (S. aureus ATCC 43300, E. faecalis ATCC 29212, E. coli ATCC 25922, P. aeruginosa ATCC 27853, L. monocytogenes CVCC 3764, B. cereus CVCC 4101, S. Castellani CGMCC 1.1869, and the multidrug-resistant E. coli strain) were cultured in nutrient broth (NB) medium (Macklin, Shanghai, China) to the logarithmic phase and diluted to 1 × 10^6 colony forming units (CFUs)/mL. The MDLs were dissolved to a final concentration of 256~0.25 μg/mL in NB medium using two-fold dilutions. A total of 50 μL of different concentrations of the MDL solutions and an equal volume of bacterial suspension were added to a 96-well plate, which was then incubated at 37 °C for 18 h. The minimum concentrations of the MDLs with no visible growth of bacteria were defined as the corresponding MICs. Media containing bacteria without the MDLs were set as the negative control. Each measurement was performed independently three times.

Series [2] relates to Enterococcus faecalis (E. faecalis) ATCC 29212. Type of series: cell-based. To be noted: NB medium, 37 °C, 18 h, three independent measurements. The protocol: as §1
For series [3], the system named is Shigella castellani (S. castellani) CGMCC 1.1869. Type of series: cell-based. To be noted: NB medium, 37 °C, 18 h, three independent measurements. The protocol: as §1
For series [4], the system named is Multidrug-Resistant Escherichia coli (E. coli) Strain. The format is cell-based. To be noted: NB medium, 37 °C, 18 h, three independent measurements. An excerpt: The standard strains of S. aureus ATCC 43300, E. faecalis ATCC 29212, E. coli ATCC 25922, and P. aeruginosa ATCC 27853 were obtained from the American Type Culture Collection (ATCC). L. monocytogenes CVCC 3764 and B. cereus CVCC 4101 were obtained from the National Center for Veterinary Culture Collection (CVCC). S. castellani CGMCC 1.1869 was obtained from the China General Microbiological Culture Collection Center. The multidrug-resistant strain Escherichia coli was obtained from the research base of the Chongqing Academy of Animal Sciences (Chongqing, China). All strains were cultured in nutrient broth overnight at 37 °C to a logarithmic growth phase before each experiment.
MIC was determined using the broth microdilution method with minor modification. In brief, bacteria (S. aureus ATCC 43300, E. faecalis ATCC 29212, E. coli ATCC 25922, P. aeruginosa ATCC 27853, L. monocytogenes CVCC 3764, B. cereus CVCC 4101, S. Castellani CGMCC 1.1869, and the multidrug-resistant E. coli strain) were cultured in nutrient broth (NB) medium (Macklin, Shanghai, China) to the logarithmic phase and diluted to 1 × 10^6 colony forming units (CFUs)/mL. The MDLs were dissolved to a final concentration of 256~0.25 μg/mL in NB medium using two-fold dilutions. […]

A further series relates to trypsin. To be noted: cited from earlier work. The protocol:
(§2) Despite its multiple potential biological activities, the applications for melittin are limited due to its severe hemolytic activity and low proteolytic stability. Melittin results in 50% hemolysis of human red blood cells at a concentration of 2 μM and 100% at 7 μM [19].

The next series has as its system human red blood cells. To be noted: cited from earlier work. The protocol: as §2
The conditions of series [5]: fetal bovine serum, human serum, and human plasma; cited from earlier work. An excerpt:
However, binding with serum albumin would weaken the detection of the free MDLs and reduce their antibacterial activity.

The next series has as its system pepsin. To be noted: after 2 h of incubation; cited from earlier work. The text has this:
Poor protease stability is one of the main factors that has limited melittin’s clinical application.

The next series deals with swine erythrocytes. The experiment in a line: Hemolytic activity assay. Type of series: cell-based. To be noted: swine erythrocytes in PBS, 1 h, 37 °C; concentration more than 4 μg/mL. The protocol: The hemolytic activity of the MDLs was evaluated as described previously with minor modification. Swine erythrocytes were collected by centrifugation at 1000 rpm for 5 min, washed three times, and suspended to a final concentration of 8% vol/vol with PBS (Macklin, Shanghai, China). Equal volumes of erythrocyte suspension and the MDLs solutions at various concentrations were mixed in a 96-well plate and incubated for 1 h at 37 °C. After centrifugation at 1000 rpm for 10 min, the supernatant was transferred to a 96-well plate. The supernatant optical density (OD) was measured at 490 nm using a microplate reader (BioTek, Winooski, VT, USA). Untreated erythrocytes and erythrocytes treated with 1% Triton X-100 (Merck, Darmstadt, Germany) were employed as the negative and positive controls, respectively. The hemolysis percentage was calculated using the following equation: Hemolysis rate%=OD490(lipopeptide)−OD490(PBS)/OD490(1% Triton X-100)−OD490(PBS)×100%

As to `CC[C@H](C)[C@H](NC(=O)CN)C(=O)NCC(=O)N[C@@H](C)C(=O)N[C@H](C(=O)N[C@@H](CC(C)C)C(=O)N[C@@H](CCCCN)C(=O)N[C@H](C(=O)N[C@@H](CC(C)C)C(=O)N[C@H](C(=O)N[C@H](C(=O)NCC(=O)N[C@@H](CC(C)C)C(=O)N1CCC[C@H]1C(=O)N[C@@H](C)C(=O)N[C@@H](CC(C)C)C(=O)N[C@H](C(=O)N[C@@H](CO)C(=O)N[C@@H](Cc1c[nH]c2ccccc12)C(=O)N[C@H](C(=O)N[C@@H](CCCCN)C(=O)N[C@@H](CCCNC(=N)N)C(=O)N[C@@H](CCCCN)C(=O)N[C@@H](CCCNC(=N)N)C(=O)N[C@@H](CCC(N)=O)C(=O)N[C@@H](CCC(N)=O)C(N)=O)[C@@H](C)CC)[C@@H](C)CC)[C@@H](C)O)[C@@H](C)O)C(C)C)C(C)C` [Mel, Melittin], the MIC turned out to be 16 µg/mL (≈ 5.62 µM) in series [1], 16 µg/mL (≈ 5.62 µM) in [2], 32 µg/mL (≈ 11.2 µM) in series [3] and 64 µg/mL (≈ 22.5 µM) in series [4]. Besides, the “melittin left after incubation with trypsin” value with trypsin (after 60 min of incubation) is given as “almost no melittin is left”. In the series on trypsin, the digestion by trypsin result is “digested rapidly”. Further, the “concentration resulting in 50% hemolysis” value in the series on human red blood cells was 2 µM. For the same compound, the “concentration resulting in 100% hemolysis” value in the series with human red blood cells is 7 µM. Moreover, in series [5], the “stability in serum and plasma” value is reported as “stable”. In the series with pepsin, the degradation by pepsin result is “entirely degraded”. In addition, the hemolysis rate entry in the series on swine erythrocytes is on record as “rapidly increased”.

Values taken from PMC10815238, “New N-Terminal Fatty-Acid-Modified Melittin Analogs with Potent Biological Activity” (International Journal of Molecular Sciences, 2024).
